According to patent US20240228488A1 (TAKEDA PHARMACEUTICAL COMPANY LIMITED, priority 2021, published 2024):

Tests used:
[1] = target: human activated kallikrein enzyme (Homo sapiens, UniProt P03952); assay: Plasma kallikrein inhibition, fluorogenic PFR-AMC substrate, 500 pM activated kallikrein format; assay type: biochemical; conditions: 500 pM activated kallikrein, 300 uM PFR-AMC, 30 min preincubation, 10 min reaction; read-out: Primary Dose Response Assay: Average EC50
Procedure, shortened: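 Enzyme (500 pM) was preincubated with inhibitor for 30 min at room temperature in 20 mM Tris pH 7.5, 1 mM EDTA, 150 mM NaCl, 0.1% PEG-400 and 0.1% Triton X-100. The reaction was started with 300 uM PFR-AMC, run 10 min, and fluorescence read at 460 nm (380 nm excitation). EC50 derived.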

plasma kallikrein = target: T1, plasma kallikrein (Homo sapiens, UniProt P03952); assay: Neat human plasma assay, FXIIa contact pathway-activated, PFR-AMC substrate; assay type: biochemical; conditions: citrated human plasma 78% final, 10 nM human FXIIa, 100 μM PFR-AMC; read-out: Human Plasma Assay: IC90
T1 construct: from tissue
T1 sequence (P03952 391-638 limits assumed): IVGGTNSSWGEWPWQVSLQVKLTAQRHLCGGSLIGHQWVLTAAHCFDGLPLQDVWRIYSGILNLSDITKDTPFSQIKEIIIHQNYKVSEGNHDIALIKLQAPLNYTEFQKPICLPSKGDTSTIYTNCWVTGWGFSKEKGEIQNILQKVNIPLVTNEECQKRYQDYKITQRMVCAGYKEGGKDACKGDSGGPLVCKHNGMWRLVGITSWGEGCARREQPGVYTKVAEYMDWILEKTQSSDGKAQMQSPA
T1 sequence (P03952 20-390 partner limits assumed): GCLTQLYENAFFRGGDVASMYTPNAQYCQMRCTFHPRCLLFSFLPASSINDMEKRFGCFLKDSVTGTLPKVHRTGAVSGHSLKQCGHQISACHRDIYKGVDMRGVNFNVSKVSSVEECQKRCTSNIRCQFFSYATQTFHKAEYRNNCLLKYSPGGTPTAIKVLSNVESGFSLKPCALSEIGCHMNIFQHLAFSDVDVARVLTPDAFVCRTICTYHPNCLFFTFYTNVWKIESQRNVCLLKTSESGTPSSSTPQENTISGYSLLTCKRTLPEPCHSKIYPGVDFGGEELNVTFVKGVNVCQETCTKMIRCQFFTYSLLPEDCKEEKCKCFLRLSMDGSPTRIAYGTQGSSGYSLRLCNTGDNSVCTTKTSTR
Procedure, shortened: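 Citrated human plasma (78% final) with compound, contact-activated by 10 nM human FXIIa in pKal buffer pH 7.5, with 100 μM PFR-AMC. Fluorescence (360/480 nm) followed 5 min at room temperature; rates versus concentration fitted by 4-parameter equation for IC50/IC90.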

Sequence of human activated kallikrein enzyme (P03952 391-638 limits assumed): as the sequence (P03952 391-638 limits assumed) above
Sequence of human activated kallikrein enzyme (P03952 20-390 partner limits assumed): as the sequence (P03952 20-390 partner limits assumed) above

Compound	EC50 [1]	IC90 (plasma kallikrein)
O=C(O)CCc1cc(C2CC2)cn2cc(CNc3ccnc(NC(=O)[C@H]4C[C@@H]4c4cccc(Cl)c4)c3)nc12 [Example 290, 3-(2-(((2-((1S,2S)-2-(3-chlorophenyl)cyclopropane-1-carboxamido)pyridin-4-yl)amino)methyl)-6-cyclopropylimidazo[1,2-a]pyridin-8-yl)propanoic acid]	< 1 nM	1500 to 10000 nM
O=C(Nc1cc(NCc2cn3cc(C4CC4)cc(CCCO)c3n2)ccn1)[C@H]1C[C@@H]1c1cccc(Cl)c1 [Example 291, (1S,2S)-2-(3-chlorophenyl)-N-(4-(((6-cyclopropyl-8-(3-hydroxypropyl)imidazo[1,2-a]pyridin-2-yl)methyl)amino)pyridin-2-yl)cyclopropane-1-carboxamide]	< 1 nM	1500 to 10000 nM
O=C(Nc1cc(NCc2cn3cc(C4CC4)cc(CCO)c3n2)ccn1)[C@H]1C[C@@H]1c1cccc(Cl)c1 [Example 292, (1S,2S)-2-(3-chlorophenyl)-N-(4-(((6-cyclopropyl-8-(2-hydroxyethyl)imidazo[1,2-a]pyridin-2-yl)methyl)amino)pyridin-2-yl)cyclopropane-1-carboxamide]	< 1 nM	1500 to 10000 nM
NCc1cc(C2CC2)cn2cc(CNc3ccnc(NC(=O)[C@H]4C[C@@H]4c4cccc(Cl)c4)c3)nc12 [Example 293, (1S,2S)—N-(4-(((8-(aminomethyl)-6-cyclopropylimidazo[1,2-a]pyridin-2-yl)methyl)amino)pyridin-2-yl)-2-(3-chlorophenyl)cyclopropane-1-carboxamide]	< 1 nM	1500 to 10000 nM
O=C(Nc1nc(O)nc(NCc2cn3cc(C4CC4)ccc3n2)n1)[C@H]1C[C@@H]1c1cccc(Cl)c1 [Example 295, (1S,2S)-2-(3-chlorophenyl)-N-(4-(((6-cyclopropylimidazo[1,2-a]pyridin-2-yl)methyl)amino)-6-hydroxy-1,3,5-triazin-2-yl)cyclopropane-1-carboxamide]	< 1 nM	1500 to 10000 nM
O=C(Nc1cc(NCc2cn3cc(C4CC4)ccc3n2)nc(=O)[nH]1)[C@H]1C[C@@H]1c1cccc(Cl)c1 [Example 296, (1S,2S)-2-(3-chlorophenyl)-N-(6-(((6-cyclopropylimidazo[1,2-a]pyridin-2-yl)methyl)amino)-2-oxo-2,3-dihydropyrimidin-4-yl)cyclopropane-1-carboxamide]	< 1 nM	1500 to 10000 nM
CN(C)C(=O)c1cc(C2CC2)cn2cc(CNc3cc(NC(=O)[C@H]4C[C@@H]4c4cccc(Cl)c4)ncn3)nc12 [Example 299, 2-(((6-((1S,2S)-2-(3-chlorophenyl)cyclopropane-1-carboxamido)pyrimidin-4-yl)amino)methyl)-6-cyclopropyl-N,N-dimethylimidazo[1,2-a]pyridine-8-carboxamide]	< 1 nM	400 to 1500 nM
O=C(Nc1cc(NCc2cn3cc(C4CC4)cc(C(=O)N4CCOCC4)c3n2)ncn1)[C@H]1C[C@@H]1c1cccc(Cl)c1 [Example 300, (1S,2S)-2-(3-chlorophenyl)-N-(6-(((6-cyclopropyl-8-(morpholine-4-carbonyl)imidazo[1,2-a]pyridin-2-yl)methyl)amino)pyrimidin-4-yl)cyclopropane-1-carboxamide]	< 1 nM	1500 to 10000 nM
CN1CCN(C(=O)c2cc(C3CC3)cn3cc(CNc4cc(NC(=O)[C@H]5C[C@@H]5c5cccc(Cl)c5)ncn4)nc23)CC1 [Example 301, (1S,2S)-2-(3-chlorophenyl)-N-(6-(((6-cyclopropyl-8-(4-methylpiperazine-1-carbonyl)imidazo[1,2-a]pyridin-2-yl)methyl)amino)pyrimidin-4-yl)cyclopropane-1-carboxamide]	< 1 nM	1500 to 10000 nM
O=C(Nc1cc(NCc2cn3cc(C4CC4)cc(C(=O)N4CCNCC4)c3n2)ncn1)[C@H]1C[C@@H]1c1cccc(Cl)c1 [Example 304, (1S,2S)-2-(3-chlorophenyl)-N-(6-(((6-cyclopropyl-8-(piperazine-1-carbonyl)imidazo[1,2-a]pyridin-2-yl)methyl)amino)pyrimidin-4-yl)cyclopropane-1-carboxamide]	< 1 nM	< 400 nM
O=C(Nc1cc(NCc2cn3cc(C4CC4)cc(-c4ccc[nH]c4=O)c3n2)ncn1)[C@H]1C[C@@H]1c1cccc(Cl)c1 [Example 305, (1S,2S)-2-(3-chlorophenyl)-N-(6-(((6-cyclopropyl-8-(2-oxo-1,2-dihydropyridin-3-yl)imidazo[1,2-a]pyridin-2-yl)methyl)amino)pyrimidin-4-yl)cyclopropane-1-carboxamide]	1 to 10 nM	1500 to 10000 nM
O=C(Nc1cc(NCc2cn3cc(C4CC4)cc(N4CCNCC4)c3n2)ncn1)[C@H]1C[C@@H]1c1cccc(Cl)c1 [Example 307, (1S,2S)-2-(3-chlorophenyl)-N-(6-(((6-cyclopropyl-8-(piperazin-1-yl)imidazo[1,2-a]pyridin-2-yl)methyl)amino)pyrimidin-4-yl)cyclopropane-1-carboxamide]	< 1 nM	< 400 nM
O=C(Nc1cc(NCc2cn3cc(C4CC4)cc(N4CCNC4=O)c3n2)ncn1)[C@H]1C[C@@H]1c1cccc(Cl)c1 [Example 309, (1S,2S)-2-(3-chlorophenyl)-N-(6-(((6-cyclopropyl-8-(2-oxoimidazolidin-1-yl)imidazo[1,2-a]pyridin-2-yl)methyl)amino)pyrimidin-4-yl)cyclopropane-1-carboxamide]	< 1 nM	1500 to 10000 nM
O=C(Nc1cc(NCc2cn3cc(C4CC4)cc(N4CCS(=O)(=O)CC4)c3n2)ncn1)[C@H]1C[C@@H]1c1cc(Cl)ccn1 [Example 326, (1S,2S)-2-(4-chloropyridin-2-yl)-N-(6-(((6-cyclopropyl-8-(1,1-dioxidothiomorpholino)imidazo[1,2-a]pyridin-2-yl)methyl)amino)pyrimidin-4-yl)cyclopropane-1-carboxamide]	< 1 nM	400 to 1500 nM
O=C(Nc1cc(NCc2cn3cc(C4CC4)cc(N4CC5CC5C4=O)c3n2)ncn1)[C@H]1C[C@@H]1c1cc(Cl)ccn1 (stereo partly drawn) [Example 327, (1S,2S)-2-(4-chloropyridin-2-yl)-N-(6-(((6-cyclopropyl-8-(2-oxo-3-azabicyclo[3.1.0]hexan-3-yl)imidazo[1,2-a]pyridin-2-yl)methyl)amino)pyrimidin-4-yl)cyclopropane-1-carboxamide]	< 1 nM	< 400 nM
Cc1cc(NCc2cn3cc(C4CC4)ccc3n2)cc(NC(=O)[C@H]2C[C@@H]2c2cccc(Cl)c2)n1 [Example 338, (1S,2S)-2-(3-chlorophenyl)-N-(4-(((6-cyclopropylimidazo[1,2-a]pyridin-2-yl)methyl)amino)-6-methylpyridin-2-yl)cyclopropane-1-carboxamide]	< 1 nM	1500 to 10000 nM
O=C(Nc1cc(NCc2cn3cc(C4CC4)ccc3n2)cc(CCN2CCOCC2)n1)[C@H]1C[C@@H]1c1cccc(Cl)c1 [Example 341, (1S,2S)-2-(3-chlorophenyl)-N-(4-(((6-cyclopropylimidazo[1,2-a]pyridin-2-yl)methyl)amino)-6-(2-morpholinoethyl)pyridin-2-yl)cyclopropane-1-carboxamide]	1 to 10 nM	1500 to 10000 nM
